# The SangsterLogP compilation
# Assay: method code SF-AS, from DOI: 10.1021/bi00362a019, PMID: 3017413
row,Structure (SMILES),logP
1,NC(N)=N/N=C/c1ccc([N+](=O)[O-])cc1,0.87
2,CCOc1ccc(/C=N/N=C(N)N)cc1,0.24
3,NC(N)=N/N=C/c1ccc(Br)cc1,1.3
4,CC(C)(C)Oc1ccc(/C=N/N=C(N)N)cc1,1.38
5,NC(N)=N/N=C/c1ccc(Oc2ccccc2)cc1,1.87
6,NC(N)=N/N=C/c1cccc([N+](=O)[O-])c1,0.01
7,COc1ccc(/C=N/N=C(N)N)cc1,0.29
8,NC(N)=N/N=C/c1ccccc1[N+](=O)[O-],0.53
9,N=C(N)NN=Cc1ccc(Cl)cc1,0.96
10,CN(C)c1ccc(/C=N/N=C(N)N)cc1,0.28
11,CCN(CC)c1ccc(C=NN=C(N)N)cc1,0.56
12,NC(N)=N/N=C/c1ccc(Cl)c([N+](=O)[O-])c1,0.53
13,N=C(N)NN=Cc1ccc(-c2ccccc2)cc1,1.49
